# According to US9006221B2, “Method of modulating ship activity” (H. Lee Moffitt Cancer Center and Reserach Institute, Inc., priority 2008, dated 2015):
# Legend:
# [1] = biological target: T1, PTEN (Homo sapiens, UniProt P60484); assay: Malachite Green phosphate release assay, PTEN; assay type: biochemical
# T1 construct: purchased
# Description: The absorbance measurements shown correspond to liberated PO4 generated by recombinant PTEN (1.44 μg) when incubated with its substrate, PI (3,4,5)P3, as detected by a Malachite Green reporter.
# (A) Purified, recombinant SHIP1 has significant activity as determined by the reduction in mean polarization units (mPu) in an FP assay designed for 5′-inositol phosphatases (Echelon Biosciences, Salt Lake City, Utah.). Note that no significant reduction in mP is obtained when the enzyme buffer without SHIP1 is added to the FP assay (Buffer) or when purified SHIP1 is assayed in the absence of its PI(3,4,5)P3 substrate (SHIP1 only).
# Assay of SHIP1 enzymatic activity: A fluorescent polarization (FP) assay that detects the 5′-inositol phosphatase activity of SHIP1 was developed based on a previously established protocol [Drees B E, et al., Comb Chem High Throughput Screen (2003) 6(4):321-330] and was obtained from Echelon Biosciences (Salt Lake City, USA). Modifications of the protocol included the application of SHIP1 in the assay and an increase in the concentration of MgCl2 to […] to maximize the activity of SHIP1 in this assay. […]
# [2] = system: priming of allogeneic T cell responses; assay: MLR with splenocytes from inhibitor-treated mice as stimulators; assay type: in vivo, mouse
# Description: FACS quantitation of Mac1^+Gr1^+ MIR cells in spleen (A) and lymph node (B) of C57BL/6 mice treated with the SHIP1 inhibitor (Compound), vehicle (Vehicle) or unmanipulated controls (Normal) as indicated. (C) Mixed-Leukocyte-Reactions (MLR) where splenocytes from SHIP1 inhibitor-treated C57BL6 (H2b) mice were used as stimulators for BALB/C (H2d) responders. In parallel splenocytes from either unmanipulated (Normal) or Vehicle treated C57BL6 mice were used as positive controls for the MLR. […] (D) Human PBMC were pre-treated for 24 hr with 3α-aminocholestane (Compound) or vehicle, irradiated and then used as stimulators for untreated PBMC from a different donor in a one-way MLR. [BALB/C=responder splenocytes not mixed with BL6 stimulators; Stim=irradiated, SHIP1 inhibitor-treated human PBMC absent responder PBMC; Resp=human PBMC responders absent allogeneic stimulators; Media, media to which only [3H]thymidine was added]. […] (E) SHIP1 inhibition increases circulating granulocyte/neutrophil numbers. Mice were treated daily for 7 days with 60 μM SHIP1 inhibitor (Compound), its vehicle (Vehicle) or were unmanipulated (Normal). Absolute peripheral blood granulocyte numbers were determined by an automated blood cell analyzer. […]
# [3] = system: human multiple myeloma cell lines OPM and RPMI; assay: Apoptosis (annexin positive cells) in multiple myeloma cell lines; assay type: cell-based; settings: increasing concentrations
# Description: (A) SHIP1 expression in human multiple myeloma (MM) cell lines as presented in the western blot analysis. SHIP is expressed in the human multiple myeloma cell lines U266, RPMI8226 and OPM2. The expression in the MM cell lines is shown relative to that observed in MG63 and HS-5 cell lines. MG63 is an osteosarcoma cell line, and HS-5 is a human bone marrow stroma cell line. […] Actin is provided as a control. (B) Results of MTT dye assays of MM cell lines. […] RUO is “relative units optical”. (C) Apoptosis in OPM and RPMI cell lines at increasing concentrations of 3α-aminocholestane.
# T1 sequence (P60484 whole entry, species assumed): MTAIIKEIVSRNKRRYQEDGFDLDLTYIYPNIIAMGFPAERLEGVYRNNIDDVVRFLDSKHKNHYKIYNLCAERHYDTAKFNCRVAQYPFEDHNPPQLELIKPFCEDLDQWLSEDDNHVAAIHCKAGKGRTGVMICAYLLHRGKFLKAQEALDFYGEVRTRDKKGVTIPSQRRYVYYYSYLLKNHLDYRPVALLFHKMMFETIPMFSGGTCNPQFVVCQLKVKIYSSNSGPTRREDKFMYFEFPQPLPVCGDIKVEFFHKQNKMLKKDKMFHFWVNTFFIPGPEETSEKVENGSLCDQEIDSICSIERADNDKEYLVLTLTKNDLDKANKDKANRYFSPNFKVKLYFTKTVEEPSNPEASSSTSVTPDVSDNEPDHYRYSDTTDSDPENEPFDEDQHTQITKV
"inhibition of PTEN ([1]; at 100 μM, Malachite Green reporter, recombinant PTEN 1.44 μg)",SMILES,"allogeneic T cell priming by splenocytes from treated mice ([2]; splenocytes from three NSC13480 treated mice as stimulators, MHC mismatched responders)","inhibition of PTEN activity ([1]; at 1 mM, Malachite Green assay)","ability of splenocytes from treated mice to stimulate allogeneic T cell responses ([2]; H2b mice treated daily i.p. 60 μM for 7 days, H2d responder splenocytes)",apoptosis (percent annexin positive cells) [3]
no significant inhibition,"OC(c1cc(-c2ccccc2)nc2c1ccc1ccccc12)C1CCCCN1 (centres unmarked) [NSC13480, (2-phenylbenzo[h]quinolin-4-yl)-piperidin-2-ylmethanol]",profound inhibition,,,
,"CC(C)CCC[C@@H](C)[C@H]1CC[C@H]2[C@@H]3CC[C@H]4C[C@H](N)CC[C@]4(C)[C@H]3CC[C@]12C [NSC23922, (3R,5S,8R,9S,10S,13R,14S,17R)-10,13-dimethyl-17-[(2R)-6-methylheptan-2-yl]-2,3,4,5,6,7,8,9,11,12,14,15,16,17-tetradecahydro-1H-cyclopenta[a]phenanthren-3-amine]",,fails to inhibit,profoundly impaired,apoptosis occurs
